Laboratory results reported in US8778919B2, “Cyclic anilino—pyridinotriazines” (Janssen Pharmaceutica NV, priority 2005, dated 2014).

Legend:
Yes (h) = Yes (h) (Homo sapiens, UniProt P07947); test: Kinase profiling C3.10 Yes human; assay type: biochemical; settings: test concentration of 10^−6 M
Experimental: (§1) The in vitro inhibition of a panel of kinases was assessed using either the glass-fiber filter technology as described by Davies, S. P. et al., Biochem J. (2000), 351; p. 95-105. In the glass-fiber filter technology the activity of the kinase of interest is measured using an appropriate substrate that is incubated with the aforementioned kinase protein in the presence of (^33P) radiolabeled ATP. (^33P) Phosporylation of the substrate is subsequently measured as radioactivity bound on a glassfiber-filter.
(§2) All kinases are pre-diluted to a 10× working concentration prior to addition into the assay. The composition of the dilution buffer for each kinase is detailed below.
(§3) All substrates are dissolved and diluted to working stocks in de-ionised water, apart from histone H1 that is stored in 10× working stock in 20 mM MOPS pH 7.4.
(§4) In a final reaction volume of 25 μl, Yes (h) (5-10 mU) is incubated with 8 mM MOPS pH 7.0, 0.2 mM EDTA, 0.1 mg/ml poly(Glu, Tyr) 4:1, 10 mM MgAcetate and [γ-^33P-ATP] (specific activity approx. 500 cpm/pmol, concentration as required). The reaction is initiated by the addition of the MgATP mix. After incubation for 40 minutes at room temperature, the reaction is stopped by the addition of 5 μl of a 3% phosphoric acid solution. 10 μl of the reaction is then spotted onto a Filtermat A and washed three times for 5 minutes in 75 mM phosphoric acid and once in methanol prior to drying and scintillation counting.

GSK-3β = GSK-3β (Homo sapiens, UniProt P49841); test: GSK-3 kinase assay (C1), GSK-3β; assay type: biochemical; settings: 1 μM ATP; for IC50: read-out: C1 Score β
Chain of GSK-3β (P49841 whole entry, species assumed): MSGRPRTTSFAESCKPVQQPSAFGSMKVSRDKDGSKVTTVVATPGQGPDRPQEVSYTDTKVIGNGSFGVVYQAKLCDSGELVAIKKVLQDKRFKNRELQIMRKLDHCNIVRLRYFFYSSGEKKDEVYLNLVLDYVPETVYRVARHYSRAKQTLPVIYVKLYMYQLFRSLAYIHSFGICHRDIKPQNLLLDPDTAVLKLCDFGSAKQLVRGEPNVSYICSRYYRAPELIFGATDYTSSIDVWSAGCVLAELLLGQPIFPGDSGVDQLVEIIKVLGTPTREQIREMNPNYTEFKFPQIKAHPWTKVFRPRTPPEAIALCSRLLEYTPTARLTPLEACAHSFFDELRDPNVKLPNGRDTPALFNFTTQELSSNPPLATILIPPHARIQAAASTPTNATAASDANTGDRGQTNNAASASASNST
Method in brief: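 Radiometric SPA at room temperature in 25 mM Tris pH 7.4 with 10 mM MgCl2, 1 mM DTT, 5.7 ng/μl GSK-3β or 0.25 ng/μl GSK-3α, 5 μM biotinylated CREB peptide and 1 μM ATP plus ^33P-ATP. Stopped after 1 h; IC50 from dose-response versus no-compound control, reported as pIC50 score bands.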

CDK6/cyclinD3 human = CDK6/cyclinD3 human (Homo sapiens, UniProt Q00534); test: Kinase profiling C3.7 CDK6/cyclinD3 human; assay type: biochemical; settings: CDK6/cyclinD3, test concentration of 10^−6 M
Chain of CDK6/cyclinD3 human (Q00534 whole entry): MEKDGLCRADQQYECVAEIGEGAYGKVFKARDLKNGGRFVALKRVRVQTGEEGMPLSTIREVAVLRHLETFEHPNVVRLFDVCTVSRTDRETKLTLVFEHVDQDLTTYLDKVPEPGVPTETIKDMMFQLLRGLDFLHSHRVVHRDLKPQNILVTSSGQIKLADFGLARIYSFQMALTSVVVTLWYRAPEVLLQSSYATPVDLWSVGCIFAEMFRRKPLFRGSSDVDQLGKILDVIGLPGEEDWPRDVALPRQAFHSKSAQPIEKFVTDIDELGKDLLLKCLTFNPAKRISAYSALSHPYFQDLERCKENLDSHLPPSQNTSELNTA
Chain of CDK6/cyclinD3 human (P30281 whole entry partner): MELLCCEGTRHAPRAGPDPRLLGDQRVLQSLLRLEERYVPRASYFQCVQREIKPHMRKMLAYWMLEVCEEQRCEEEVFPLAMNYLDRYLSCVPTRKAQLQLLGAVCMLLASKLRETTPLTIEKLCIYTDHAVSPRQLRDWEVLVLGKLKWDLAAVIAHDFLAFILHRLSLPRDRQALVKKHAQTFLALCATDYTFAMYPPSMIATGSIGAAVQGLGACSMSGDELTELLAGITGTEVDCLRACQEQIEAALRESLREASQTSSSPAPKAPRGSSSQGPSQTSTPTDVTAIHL
Experimental: as §1, §2, §3
as §4, with “CDK6/cyclinD3 human” for “Yes (h)”, “histone H1,” for “poly(Glu, Tyr) 4:1,”, “P30 filtermat” for “Filtermat A”

CDK1/cyclinB (h) = CDK1/cyclinB (h) (Homo sapiens, UniProt P06493); test: Kinase profiling C3.2 CDK1/cyclinB human; assay type: biochemical; settings: test concentration of 10^−6 M
Chain of CDK1/cyclinB (h) (P06493 whole entry): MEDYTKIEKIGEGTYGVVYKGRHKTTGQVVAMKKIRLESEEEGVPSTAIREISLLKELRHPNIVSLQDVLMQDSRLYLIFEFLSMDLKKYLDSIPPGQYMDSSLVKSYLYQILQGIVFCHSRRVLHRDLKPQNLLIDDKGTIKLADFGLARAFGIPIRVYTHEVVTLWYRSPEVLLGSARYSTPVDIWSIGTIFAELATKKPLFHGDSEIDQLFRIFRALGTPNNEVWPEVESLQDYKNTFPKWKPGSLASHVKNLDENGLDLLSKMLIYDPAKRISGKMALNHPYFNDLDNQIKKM
Chain of CDK1/cyclinB (h) (P14635 whole entry partner): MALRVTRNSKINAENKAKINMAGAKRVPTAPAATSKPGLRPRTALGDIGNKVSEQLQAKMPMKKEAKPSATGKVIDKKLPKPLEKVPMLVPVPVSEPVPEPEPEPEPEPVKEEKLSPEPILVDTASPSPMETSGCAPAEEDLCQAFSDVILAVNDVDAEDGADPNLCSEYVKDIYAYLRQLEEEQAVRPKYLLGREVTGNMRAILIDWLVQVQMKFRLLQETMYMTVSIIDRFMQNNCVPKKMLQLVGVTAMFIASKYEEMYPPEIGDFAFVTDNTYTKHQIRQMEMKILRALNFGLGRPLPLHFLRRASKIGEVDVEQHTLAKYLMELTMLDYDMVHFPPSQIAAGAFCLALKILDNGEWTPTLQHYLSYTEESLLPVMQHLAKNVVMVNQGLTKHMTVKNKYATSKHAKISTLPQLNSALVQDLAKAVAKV
Method in brief: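 Radiometric filter-binding assay: human CDK1/cyclinB (5-10 mU) with 0.1 mg/ml histone H1 substrate and [γ-33P]ATP in 8 mM MOPS pH 7.0, 10 mM Mg acetate, 40 min at room temperature. Stopped with phosphoric acid; substrate-bound 33P counted on P30 filtermat by scintillation.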

Chang cells = test: GSK-3 cellular assay (C2): 14C-D-glucose incorporation into glycogen; assay type: cell-based; settings: increase in D-glucose incorporation into glycogen, test concentration of 10^−6 M
Experimental: Test compounds were tested for their ability to increase the incorporation of ^14C-D-glucose into glycogen in living cells. To do this, Chang cells (360,000 cells/well) were cultured in 0.5 ml of MEM Rega 3 medium supplemented with 10% fetal calf serum, 1% L-glutamine and 2% sodium carbonate. After 3 days, cells were washed with 0.5 ml of phosphate-buffered saline and overlayed with 1 ml of serum- and glucose-free DMEM medium. Then, 2 μl of compound in DMSO and 50 μl substrate (3 mM glucose and 0.5 μCi ^14C-D-glucose were added and the cultures were incubated for 90 min. Cells were then extracted with 0.5 ml of 20% KOH for 60 min at 37° C. and the cell lysates were transferred to 10 ml tubes containing 300 μl of 1 mg/ml glycogen as […]. Following the addition of 2 ml ethanol, total glycogen was precipitated overnight at −20° C. and the precipitates were recovered by centrifugation. Precipitates were then resuspended in 1 ml of water and transferred to scintillation counter vials. and the amount of ^14C-D-glucose incorporation into glycogen was measured by scintillation counting. Scores for the compounds according to the invention, were obtained at a test concentration of 10^−6 M. Score 1=10-30% increase, Score 2=30-60% increase, Score 3=60-80% increase and Score 4=>80% increase in D-glucose incorporation.

Chain of Yes (h) (P07947 whole entry): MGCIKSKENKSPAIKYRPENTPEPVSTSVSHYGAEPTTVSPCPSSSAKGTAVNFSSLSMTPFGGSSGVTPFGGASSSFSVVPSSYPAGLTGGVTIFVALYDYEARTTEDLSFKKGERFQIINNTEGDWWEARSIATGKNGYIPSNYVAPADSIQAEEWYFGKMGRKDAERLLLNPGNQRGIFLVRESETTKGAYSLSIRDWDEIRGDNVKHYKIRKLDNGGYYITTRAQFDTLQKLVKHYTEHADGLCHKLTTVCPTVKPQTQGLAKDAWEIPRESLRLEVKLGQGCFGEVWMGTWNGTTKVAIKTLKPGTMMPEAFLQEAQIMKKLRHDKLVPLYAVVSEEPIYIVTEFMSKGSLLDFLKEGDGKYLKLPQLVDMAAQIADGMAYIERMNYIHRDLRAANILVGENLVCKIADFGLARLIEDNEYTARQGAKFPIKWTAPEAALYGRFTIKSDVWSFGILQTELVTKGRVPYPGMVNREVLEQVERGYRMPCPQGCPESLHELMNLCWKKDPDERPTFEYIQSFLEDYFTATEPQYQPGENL

Structure (SMILES) | C3.10 score (Yes (h)) | IC50 (GSK-3β) [nM] | C3.7 score (CDK6/cyclinD3 human) | C3.2 score (CDK1/cyclinB (h)) | C2 Score (Chang cells) | C1 Score β (GSK-3β)
CN1CC(=O)NCC#Cc2cc(ccn2)-c2ncnc(n2)Nc2cccc(c2)C1 [Compound 1] | 3 (Score 3 = 60-80% inhibition) | < 10 | 4 (Score 4 = >80% inhibition) | 4 (Score 4 = >80% inhibition) | 3 (Score 3=60-80% increase) | 
CN1CC(=O)NC/C(Cl)=C/c2cc(ccn2)-c2ncnc(n2)Nc2cccc(c2)C1 [Compound 2] | 4 (Score 4 = >80% inhibition) | < 10 | 4 (Score 4 = >80% inhibition) | 4 (Score 4 = >80% inhibition) | 4 (Score 4=>80% increase in D-glucose incorporation) | 
CN1CCC(=O)NCCCc2cc(ccn2)-c2ncnc(n2)Nc2cccc(c2)C1 [Compound 3] | 2 (Score 2 = 30-60% inhibition) | 10 to 100 | 2 (Score 2 = 30-60% inhibition) | 4 (Score 4 = >80% inhibition) |  | 
CN1CCCc2cc(ccn2)-c2ncnc(n2)Nc2cccc(c2)CNC(=O)C1 [Compound 7] | 2 (Score 2 = 30-60% inhibition) | < 10 | 1 (Score 1 = 10-30% inhibition) | 4 (Score 4 = >80% inhibition) | 3 (Score 3=60-80% increase) | 
CN1CC(=O)NCCCc2cc(ccn2)-c2ncnc(n2)Nc2cccc(c2)C1 [Compound 8] |  |  | 2 (Score 2 = 30-60% inhibition) | 4 (Score 4 = >80% inhibition) | 4 (Score 4=>80% increase in D-glucose incorporation) | 4 (Score 4=pIC50 value>8)
O=C1CN2CCN(CC2)Cc2cccc(c2)Nc2ncnc(n2)-c2ccnc(c2)CCCN1 [Compound 9] |  |  | 1 (Score 1 = 10-30% inhibition) | 4 (Score 4 = >80% inhibition) | 4 (Score 4=>80% increase in D-glucose incorporation) | 4 (Score 4=pIC50 value>8)
CN1CC(=O)NCCCc2cc(ccn2)-c2ncnc(n2)Nc2cccc(c2)C1 [Compound 10] | 2 (Score 2 = 30-60% inhibition) | < 10 | 4 (Score 4 = >80% inhibition) | 4 (Score 4 = >80% inhibition) | 4 (Score 4=>80% increase in D-glucose incorporation) | 
CN1CCN(CCN2CCC(=O)NCCCc3cc(ccn3)-c3ncnc(n3)Nc3cccc(c3)C2)CC1 [Compound 11] | 1 (Score 1 = 10-30% inhibition) | 100 to 1000 | 1 (Score 1 = 10-30% inhibition) | 1 (Score 1 = 10-30% inhibition) |  | 
O=C1NCCCc2cc(ccn2)-c2ncnc(n2)Nc2cccc(c2)CN2CCCC12 (stereo not shown) [Compound 12] | 2 (Score 2 = 30-60% inhibition) | 100 to 1000 | 1 (Score 1 = 10-30% inhibition) | 3 (Score 3 = 60-80% inhibition) |  | 
CN1CCCC(=O)NCCCc2cc(ccn2)-c2ncnc(n2)Nc2cccc(c2)C1 [Compound 13] | 1 (Score 1 = 10-30% inhibition) | 10 to 100 | 1 (Score 1 = 10-30% inhibition) | 1 (Score 1 = 10-30% inhibition) |  | 
O=C1NCCCc2cc(ccn2)-c2ncnc(n2)Nc2cccc(c2)CN2C[C@H](O)C[C@@H]12 [Compound 14] | 1 (Score 1 = 10-30% inhibition) | 10 to 100 | 1 (Score 1 = 10-30% inhibition) | 2 (Score 2 = 30-60% inhibition) |  | 
O=C1NCCCc2cc(ccn2)-c2ncnc(n2)Nc2cccc(c2)CN2CCCC1C2 (stereo not shown) [Compound 15] | 1 (Score 1 = 10-30% inhibition) | 10 to 100 | 1 (Score 1 = 10-30% inhibition) | 1 (Score 1 = 10-30% inhibition) |  | 
CCN1CCCc2cc(ccn2)-c2ncnc(n2)Nc2cccc(c2)CCNC(=O)C1 [Compound 30] |  | < 10 | 1 (Score 1 = 10-30% inhibition) | 4 (Score 4 = >80% inhibition) | 4 (Score 4=>80% increase in D-glucose incorporation) | 
CN1CC(=O)NCCCc2cc(ccn2)-c2ncnc(n2)Nc2cc(Cl)cc(c2)C1 [Compound 33] |  | < 10 | 3 (Score 3 = 60-80% inhibition) | 4 (Score 4 = >80% inhibition) | 4 (Score 4=>80% increase in D-glucose incorporation) | 
CCN1CC(=O)NCCCc2cc(ccn2)-c2ncnc(n2)Nc2cc(Cl)cc(c2)C1 [Compound 34] |  | < 10 | 2 (Score 2 = 30-60% inhibition) | 4 (Score 4 = >80% inhibition) | 4 (Score 4=>80% increase in D-glucose incorporation) | 
O=C1CCN2CCN(CC2)Cc2cccc(c2)Nc2ncnc(n2)-c2ccnc(c2)CCCN1 [Compound 35] | 2 (Score 2 = 30-60% inhibition) | 10 to 100 | 3 (Score 3 = 60-80% inhibition) | 4 (Score 4 = >80% inhibition) | 4 (Score 4=>80% increase in D-glucose incorporation) | 
O=C1CN2CCN(CC2)Cc2cc(Cl)cc(c2)Nc2ncnc(n2)-c2ccnc(c2)CCCN1 [Compound 41] |  | < 10 | 1 (Score 1 = 10-30% inhibition) | 4 (Score 4 = >80% inhibition) | 4 (Score 4=>80% increase in D-glucose incorporation) | 
O=C1NCCCc2cccc(c2)-c2ncnc(n2)Nc2cccc(c2)CN[C@H]1CO [Compound 46] |  |  | 1 (Score 1 = 10-30% inhibition) | 4 (Score 4 = >80% inhibition) | 4 (Score 4=>80% increase in D-glucose incorporation) | 
CCN1CC(=O)NCCCc2cccc(c2)-c2ncnc(n2)Nc2cccc(c2)C1 [Compound 54] | 2 (Score 2 = 30-60% inhibition) |  | 1 (Score 1 = 10-30% inhibition) | 3 (Score 3 = 60-80% inhibition) | 4 (Score 4=>80% increase in D-glucose incorporation) | 
O=C1CN2CCN(CC2)Cc2cccc(c2)Nc2ncnc(n2)-c2ccc(F)c(c2)CCCN1 [Compound 66] | 1 (Score 1 = 10-30% inhibition) |  |  | 4 (Score 4 = >80% inhibition) | 4 (Score 4=>80% increase in D-glucose incorporation) | 
O=C1NCCCc2cc(ccc2F)-c2ncnc(n2)Nc2cc(Cl)cc(c2)CN[C@H]1CO [Compound 71] | 4 (Score 4 = >80% inhibition) |  | 2 (Score 2 = 30-60% inhibition) | 4 (Score 4 = >80% inhibition) | 4 (Score 4=>80% increase in D-glucose incorporation) | 
O=C1NCCCc2cncc(c2)-c2ncnc(n2)Nc2cccc(c2)CN[C@H]1CO [Compound 81] | 1 (Score 1 = 10-30% inhibition) |  | 1 (Score 1 = 10-30% inhibition) | 4 (Score 4 = >80% inhibition) | 4 (Score 4=>80% increase in D-glucose incorporation) | 
